The structures appear in SMILES notation.

The values that follow come from paper PMC4791210 (International immunopharmacology, 2015).

The subject of experiment [1] is human neutrophils. Kind of experiment: Direct activation of Ca2+ flux in human neutrophils. Type of experiment: cell-based. Particulars: Neutrophil, read-out: Human Neutrophils Activation (EC50, μM). Background: A change in cytosolic calcium serves as a functional read-out for many receptors and channels.
The target in experiment [2] is T1, FPR1 (Homo sapiens, UniProt P21462).
T1 sequence (P21462 1-350): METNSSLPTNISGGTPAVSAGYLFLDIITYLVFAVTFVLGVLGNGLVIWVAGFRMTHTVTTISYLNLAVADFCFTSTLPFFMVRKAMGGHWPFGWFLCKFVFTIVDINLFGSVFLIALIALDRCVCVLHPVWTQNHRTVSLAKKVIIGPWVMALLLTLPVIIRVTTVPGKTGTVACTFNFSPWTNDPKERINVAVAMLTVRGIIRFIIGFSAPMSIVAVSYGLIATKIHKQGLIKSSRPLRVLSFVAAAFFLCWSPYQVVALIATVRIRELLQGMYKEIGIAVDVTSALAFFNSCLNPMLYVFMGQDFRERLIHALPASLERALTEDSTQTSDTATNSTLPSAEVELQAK
Kind of experiment: Direct activation of Ca2+ flux in FPR1 transfected HL-60 cells. Type of experiment: cell-based.

Experiment [3] deals with FPR1. Particulars: high concentrations; cited from earlier work.
Experiment [4] concerns human monocytes. As to conditions: read-out: IC50, inhibition of fMLF-induced Ca2+ flux in human monocytes; cited from earlier work.
The subject of experiment [5] is FPR1. Particulars: read-out: IC50, blocking of fMLF binding to FPR1; cited from earlier work.
The target in experiment [6] is T1, FPR1. As to conditions: cited from earlier work.
Experiment [7] has as its system fMLF-stimulated neutrophils. Particulars: result in words; cited from earlier work.

In general, EC50 refers to the concentration at which the effect is half-maximal. Broadly, the IC50 is the concentration that inhibits the measured activity by half. As for `C[C@H](CCC(=O)O)[C@H]1CC[C@H]2[C@@H]3[C@H](O)C[C@@H]4C[C@H](O)CC[C@]4(C)[C@H]3CC[C@]12C` [Chenodeoxycholic acid (CDCA), Chenodeoxycholic acid], the EC50 in experiment [1] worked out at 49.5 ± 5.1 µM; in experiment [2] it was 40.3 ± 4.5 µM. Also, in experiment [3], the “Concentrations that antagonize FPR1 and inhibit 3H-fMLF binding” value was at least 100 µM. Also, the 50% inhibitory concentration (IC50) in experiment [4] was 40 µM.

For `COc1ccc(C[C@H]2COC(=O)[C@@H]2Cc2ccc(O)c(O)c2)cc1OC` [Lignan PP-6, (2R, 3R)-2-(3′,4′-dihydroxybenzyl)-3-(3″,4″-dimethoxybenzyl)butyrolactone], in experiment [5], the concentration for half-maximal inhibition (IC50) was around 1.5 µM.

As for `CC(=O)OC1COC(OC2C(O)C(C)OC(OC3C(OC4CCC5(C)C(CCC6(C)C5CC=C5C7CC(C)(C)CCC7(C(=O)O)CCC56C)C4(C)CO)OCC(O)C3O)C2O)C(O)C1OC(C)=O` [SMG-1, hederagenin 3-O-(3,4-O-di-acetyl-α-L-arabinopyranoside)-(1→3)-α-l-rhamnopyranosyl-(1→2)-α-l-arabinopyranoside], in experiment [6], the “Binding of fluorescent FPR1 ligand in human neutrophils” value is reported as “blocked binding”.

Consider `C=C(C)[C@@H]1CC[C@]2(C(=O)O)CC[C@]3(C)[C@H](CC[C@@H]4[C@@]5(C)CC[C@H](O)C(C)(C)[C@@H]5CC[C@]43C)[C@@H]12` [betulinic acid], for which the “Effect on fMLF-induced release of HNE” value in experiment [7] is “did not affect”.
